Reference: publication PMC12643354, “From Oxygen to Tellurium: The Impact of the Chalcogen on Nucleophilicities and Basicities of Isochalcogenourea Catalysts” (Angewandte Chemie (International Ed. in English), 2025)
Values joined by “and” are separate entries in the source; they are usually repeats but may differ in a detail not shown here. Equal entries are not always repeated. Where two headings read alike, the source gives them in different places.

Legend:
[1] = Mayr nucleophilicity parameters N and sN (benzhydrylium methodology, Mayr-Patz equation); format: physicochemical; conditions: dichloromethane, 20 °C
Source text: (1) Mayr-Patz Equation: lgk20^∘C=sN(N+E)
The MPE is a linear‐free‐energy relationship that characterizes electrophiles by the electrophilicity parameter E and nucleophiles by the solvent‐dependent parameters N (nucleophilicity) and s N (sensitivity toward changes in the electrophile reactivity). By using the MPE (Equation (1)), the construction of comprehensive nucleophilicity and electrophilicity scales becomes possible, which facilitate the comparison of various classes of Lewis base organocatalysts.^[ [110], [111], [112], [113], [114], [115], [116], [117], [118], [119], [120] ^]
In order to systematically investigate the influence of the chalcogen atom on the nucleophilicity of DHPB‐derived IChUs (Ch = O, S, Se, and Te), we utilized Mayr's benzhydrylium methodology.^[ [107] ^]
Figure 4 illustrates the linear correlations of the second‐order rate constants (lg k 2) with the electrophilicities E of Ar2CH^+ (18), which makes it possible to determine the Mayr nucleophilicity parameters N (and s N) for the DHPB‐derived IChUs IU3, ITU3, ISeU3, and ITeU3. […]
Figure 4 Linear correlations of second‐order rate constants (lg k 2) for the reactions of IU3, ITU3, ISeU3, and ITeU3 with Ar2CH^+ 18 (in dichloromethane at 20 °C) with the electrophilicities E of 18. The slopes of the linear correlations equal the nucleophile‐dependent sensitivity parameter s N. Intercepts on the abscissa reflect the nucleophilicity parameter N (N = –E at lg k 2 = 0).

[2] = Lewis basicity LB from equilibrium constants (photometric titrations) with benzhydrylium ions as reference Lewis acids; format: physicochemical; set-up: key: Mayr Lewis basicity scale; LB from K and reference LA via Eq. (3); conditions: in dichloromethane, 20 °C
Experimental: (a) Lewis basicity. Previously, the Mayr group established a series of benzhydrylium ions as C‐centered Lewis acid references to construct a Lewis basicity scale in dichloromethane. Substituting experimentally determined equilibrium constants K (at 20 °C) and reported Lewis acidities LA for the benzhydrylium ions (Figure 7) in Equation (3) enables one to calculate the Lewis basicity (LB) of a Lewis base.^[ [121], [127] ^] (3) lgK(20^∘C)=LA+LB
The reversibility of the formation of adducts 19 (Equation (4)), which was also apparent in the kinetics by significant positive intercepts in several of the k obs versus [IChU] plots (Supporting Information), provided the opportunity to probe the thermodynamics of the C‐N bond‐forming reactions of IChUs with benzhydrylium ions as the reference Lewis acids in more detail.^[ [95] ^] (4) IChU+Ar2CH^+(18)⇌Ar2CH-IChU^+(19)
By assuming the validity of the Beer–Lambert law for dilute solutions, equilibrium constants K (L mol^−1) were determined in photometric titrations according to Equation (5) from the initial absorbance (A 0) of the benzhydrylium ions 18 and the absorbance at equilibrium (A, Equation 5), that is, after addition of a certain amount of an IChU.^[ [109], [110], [111], [112], [113], [114], [115], [119] ^] (5) K=[19]/[18]IChU=A0−A/AIChU

[3] = Mayr nucleophilicity parameters N and sN (benzhydrylium methodology, Mayr-Patz equation); format: physicochemical; conditions: 20 °C
[4] = dichloromethane, 20 °C; cited from earlier work
[5] = cited from earlier work
[6] = in acetonitrile, ref SI [25]-[30]

Compound: Fc1ccc2c(c1)SC1=N[C@H](c3ccccc3)CN12 [F-ITU2, 7-F-BTM]
- Nucleophile-specific sensitivity parameter sN [1]: 0.66
- Nucleophilicity parameter N [1]: 13.45 and 13.46
- Lewis basicity LB [2]: 14.18

Compound: CC(C)[C@@H]1CN2C(=N[C@@H]1c1ccccc1)[Se]c1ccccc12 [ISeU5, SeHyperBTM]
- Nucleophile-specific sensitivity parameter sN [1]: 0.58
- Nucleophilicity parameter N [1]: 16.11
- Lewis basicity LB [2]: 14.75
- Nucleophile-specific sensitivity parameter sN ([3]; THF): 0.77
- Nucleophilicity parameter N ([3]; THF): 14.19
- Nucleophile-specific sensitivity parameter sN ([3]; acetonitrile): 0.57
- Nucleophilicity parameter N ([3]; acetonitrile): 15.84

Compound: c1ccc([C@@H]2CCN3C(=N2)[Se]c2ccccc23)cc1 [ISeU4, SeHBTM]
- Nucleophile-specific sensitivity parameter sN [1]: 0.67
- Nucleophilicity parameter N [1]: 14.42
- Lewis basicity LB [2]: 14.03

Compound: c1ccc([C@@H]2CCN3C(=N2)Sc2ccccc23)cc1 [ITU4, HBTM]
- Lewis basicity LB [2]: 13.43
- Nucleophilicity parameter N [4]: 13.45

Compound: CC(C)[C@@H]1CN2C(=N[C@@H]1c1ccccc1)Oc1ccccc12 [IU5, OHyperBTM]
- Nucleophile-specific sensitivity parameter sN [1]: 0.73
- Nucleophilicity parameter N [1]: 13.01
- Lewis basicity LB [2]: 12.42

Compound: c1ccc(C2CN3CCSC3=N2)cc1 (centres unmarked) [ITU1, tetramisole, reference compound]
- Nucleophile-specific sensitivity parameter sN [1]: 0.68
- Nucleophilicity parameter N [1]: 13.86
- Lewis basicity LB [2]: 15.50

Compound: c1ccc([C@@H]2CN3C(=N2)[Te]c2ccccc23)cc1 [ITeU2, TeBTM]
- Nucleophile-specific sensitivity parameter sN [1]: 0.66
- Nucleophilicity parameter N [1]: 14.62
- Lewis basicity LB [2]: 17.09

Compound: COc1ccc2c(c1)SC1=N[C@H](c3ccccc3)CN12 [MeO-ITU2, 7-MeO-BTM]
- Nucleophile-specific sensitivity parameter sN [1]: 0.75
- Nucleophilicity parameter N [1]: 13.15
- Lewis basicity LB [2]: 15.22

Compound: CC1(C)OC(=O)CC(=O)O1 [Meldrum’s acid]
- Literature pKa of indicators and acids ([5]; in DMSO, ref SI [31]-[36]): 7.3

Compound: c1ccc([C@@H]2CN3C(=N2)[Se]c2ccccc23)cc1 [ISeU2, SeBTM]
- Nucleophile-specific sensitivity parameter sN [1]: 0.63
- Nucleophilicity parameter N [1]: 14.27
- Lewis basicity LB [2]: 15.23

Compound: O=C(O)c1ccc([N+](=O)[O-])cc1[N+](=O)[O-] [2,4-Dinitrobenzoic acid]
- Literature pKa of indicators and acids ([5]; in DMSO, ref SI [31]-[36]): 6.5

Compound: CN(C)c1ccncc1 [4-(dimethylamino)pyridine]
- Literature pKa of indicators and acids ([5]; in DMSO, ref SI [31]-[36]): 7.91
- Literature pKa of indicators and acids [5, 6]: 17.95

Compound: C1CCNC1 [Pyrrolidine]
- Literature pKa of indicators and acids ([5]; in DMSO, ref SI [31]-[36]): 11.06
- Literature pKa of indicators and acids [5, 6]: 19.56

Compound: CC(C)[C@@H]1CN2C(=N[C@@H]1c1ccccc1)Sc1ccccc12 [ITU5, HyperBTM]
- Lewis basicity LB [2]: 14.12
- Nucleophilicity parameter N [4]: 14.96

Compound: c1ccc([C@@H]2CN3C(=N2)Sc2ccccc23)cc1 [ITU2, benzotetramisole]
- Nucleophile-specific sensitivity parameter sN [1]: 0.73
- Nucleophilicity parameter N [1]: 13.06
- Lewis basicity LB [2]: 14.88

Compound: CN(C)c1cccc2cccc(N(C)C)c12 [Proton Sponge]
- Literature pKa of indicators and acids ([5]; in DMSO, ref SI [31]-[36]): 7.47

Compound: c1ccc(C2CN3CC[Se]C3=N2)cc1 (centres unmarked) [ISeU1, SeTM]
- Nucleophile-specific sensitivity parameter sN [1]: 0.60
- Nucleophilicity parameter N [1]: 15.26
